According to patent US7678803B2, “Quinazoline derivatives for the treatment of cancer” (Serenex, Inc., priority 2006, dated 2010):

System: HSP-90 (heat shock protein 90)
Test: Determination of affinity for HSP-90 (elution from purine affinity column); also: key: +++: very high; ++: high; +: moderate
Details: relative binding affinity to HSP-90
Protocol: Affinity of test compounds for HSP-90 is determined as follows: Protein mixtures obtained from a variety of organ tissues (for example: spleen, liver and lung) are reversibly bound to a purine affinity column to capture purine-binding proteins, especially HSP-90. […] The elution profile of Formula I compounds is determined by 1-dimensional SDS polyacrylamide gel electrophoresis. Gels are stained with a fluorescent stain such as sypro ruby (a highly sensitive fluorescent protein stain that can readily detect less than 1 fmol of total protein, i.e., less than 0.04 ng for a 40 kDa protein) or silver nitrate. The gels are imaged using a standard flat bed gel imager and the amount of protein estimated by densitometry. The percent of HSP-90 protein eluted from the column at each concentration is determined and IC50 values are calculated from these estimates.

In the case of `Cc1nn(-c2ccc3c(N)ncnc3c2F)c2c1C(=O)CC(C)(C)C2` [Compound 95, 1-(4-amino-8-fluoroquinazolin-7-yl)-3,6,6-trimethyl-6,7-dihydro-1H-indazol-4(5H)-one], the Affinity is reported as “+++”.
For `Cc1cn(-c2ccc3c(Cl)nccc3c2)c2c1C(=O)CC(C)(C)C2` [Compound 44, 1-(1-chloroisoquinolin-6-yl)-3,6,6-trimethyl-6,7-dihydro-1H-indol-4(5H)-one], the Affinity was “+”.
In the case of `CC1(C)CC(=O)c2c(C(F)(F)F)nn(-c3ccc4c(N)ncc(Br)c4c3)c2C1` [Compound 46, 1-(1-amino-4-bromoisoquinolin-6-yl)-6,6-dimethyl-3-(trifluoromethyl)-6,7-dihydro-1H-indazol-4(5H)-one], the Affinity is reported as “+”.
`COCCNc1c(-n2cc(C)c3c2CC(C)(C)CC3=O)ccc2c(N)ncnc12` [Compound 56, 1-(4-amino-8-(2-methoxyethylamino)quinazolin-7-yl)-3,6,6-trimethyl-6,7-dihydro-1H-indol-4(5H)-one] was tested, and the Affinity was “+++”.
With `Cc1cn(-c2ccc3c(N)ncnc3c2Cl)c2c1C(=O)CC(C)(C)C2` [Compound 80, 1-(4-amino-8-chloroquinazolin-7-yl)-3,6,6-trimethyl-6,7-dihydro-1H-indol-4(5H)-one] the Affinity was “++”.
For `Cc1cn(-c2ccc3c(N)ncc(/C(N)=N/O)c3c2)c2c1C(=O)CC(C)(C)C2` [Compound 105, (Z)-1-amino-N′-hydroxy-6-(3,6,6-trimethyl-4-oxo-4,5,6,7-tetrahydro-1H-indol-1-yl)isoquinoline-4-carboximidamide], the Affinity was “+++”.
`COCCCOc1c(-n2cc(C)c3c2CC(C)(C)CC3=O)ccc2c(N)ncnc12` [Compound 60, 1-(4-amino-8-(3-methoxypropoxy)quinazolin-7-yl)-3,6,6-trimethyl-6,7-dihydro-1H-indol-4(5H)-one] was tested, and the Affinity was “+++”.

System: PC-3
Test: PC-3 cell proliferation assay (WST-1)
Format: cell-based
Details: Homo sapiens; inhibitory activity against PC-3 cell proliferation
Protocol: A panel of cancer cell lines is obtained from the DCTP Tumor Repository, National Cancer Institute (Frederick, Md.) or ATCC (Rockville, Md.). Cell cultures are maintained in Hyclone RPMI 1640 medium (Logan, Utah) supplemented with 10% fetal bovine serum and 20 mM HEPES buffer, final pH 7.2, at 37° C. with a 5% CO2 atmosphere. Cultures are maintained at sub-confluent densities. Human umbilical vein endothelial cells (HUVEC) are purchased from Clonetics, a division of Cambrex (Walkersville, Md.). Cultures are established from cryopreserved stocks using Clonetics EGM-2 medium supplemented with 20 mM HEPES, final pH 7.2, at 37° C. with a 5% CO2 atmosphere.
For proliferation assays, cells are seeded with the appropriate medium into 96 well plates at 1,000-2,500 cells per well, depending on the cell line, and are incubated overnight. The following day, test compound, DMSO solution (negative control), or Actinomycin D (positive control) is added to the appropriate wells as 10× concentrated stocks prepared in phosphate buffered saline. The cell plates are then incubated for an additional 2-5 days, depending on the cell line, to allow proliferation to occur. To measure cell density, 50 μL of WST-1 solution (Roche Applied Science, IN) diluted 1:5 in phosphate buffered saline is added to each well, and the cells incubated for an additional 1-5 hrs., again depending on the cell line. Optical density is determined for each well at […] using a Tecan GeniosPro plate reader (RTP, NC). The percentage of cell growth is determined by comparing the cell growth in the presence of test compounds to the cells treated with DMSO vehicle (control, 100% growth) and cells treated with Actinomycin D (10 μM, 0% growth). […]

`Cc1cn(-c2ccc3c(N)ncnc3c2OC2CCOCC2)c2c1C(=O)CC(C)(C)C2` [Compound 133, 1-(4-amino-8-(tetrahydro-2H-pyran-4-yloxy)quinazolin-7-yl)-3,6,6-trimethyl-6,7-dihydro-1H-indol-4(5H)-one] and `CCOc1c(-n2cc(C)c3c2CC(C)(C)CC3=O)ccc2c(N)ncnc12` [Compound 62, 1-(4-amino-8-ethoxyquinazolin-7-yl)-3,6,6-trimethyl-6,7-dihydro-1H-indol-4(5H)-one] fall in the same range of IC50: 0.5 to 5 µM for the first, 0.5 to 5 µM for the second.

Compared with `Cc1cn(-c2cc(F)c3c(N)nc(N)nc3c2)c2c1C(=O)CC(C)(C)C2` [Compound 126, 1-(2,4-diamino-5-fluoroquinazolin-7-yl)-3,6,6-trimethyl-6,7-dihydro-1H-indol-4(5H)-one], `Cc1cn(-c2cnc3c(N)nc(N)nc3c2)c2c1C(=O)CC(C)(C)C2` [Compound 139, 1-(2,4-diaminopyrido[3,2-d]pyrimidin-7-yl)-3,6,6-trimethyl-6,7-dihydro-1H-indol-4(5H)-one] is lower in IC50: 0.5 to 5 µM for the first, < 0.5 µM for the second.

First: Cc1cn(-c2ccc3c(C)nc(N)nc3c2)c2c1C(=O)CC(C)(C)C2 [Compound 128, 1-(2-amino-4-methylquinazolin-7-yl)-3,6,6-trimethyl-6,7-dihydro-1H-indol-4(5H)-one]
Second: Cc1cn(-c2ccc3c(N)ncnc3c2)c2c1C(=O)CC(C)(C)C2 [Compound 39, 1-(4-aminoquinazolin-7-yl)-3,6,6-trimethyl-6,7-dihydro-1H-indol-4(5H)-one]
The IC50 of the first is lower: < 0.5 µM for the first, 0.5 to 5 µM for the second.

`Cc1cn(-c2ccc3c(N)ncc(N)c3c2)c2c1C(=O)CC(C)(C)C2` [Compound 121, 1-(1,4-diaminoisoquinolin-6-yl)-3,6,6-trimethyl-6,7-dihydro-1H-indol-4(5H)-one] and `Cc1cn(-c2ccc3c(N)ncc(C(N)=O)c3c2)c2c1C(=O)CC(C)(C)C2` [Compound 104, 1-amino-6-(3,6,6-trimethyl-4-oxo-4,5,6,7-tetrahydro-1H-indol-1-yl)isoquinoline-4-carboxamide] fall in the same range of IC50: 5 to 50 µM for the first, 5 to 50 µM for the second.

Compared with `Cc1nn(-c2ccc3c(N)ncc(Br)c3c2)c2c1C(=O)CC(C)(C)C2` [Compound 47, 1-(1-amino-4-bromoisoquinolin-6-yl)-3,6,6-trimethyl-6,7-dihydro-1H-indazol-4(5H)-one], `CC1(C)CC(=O)c2c(C(F)F)nn(-c3ccc4c(N)ncc(C#N)c4c3)c2C1` [Compound 94, 1-amino-6-(3-(difluoromethyl)-6,6-dimethyl-4-oxo-4,5,6,7-tetrahydro-1H-indazol-1-yl)isoquinoline-4-carbonitrile] is lower in IC50: 5 to 50 µM for the first, 0.5 to 5 µM for the second.

First: Cc1cn(-c2ccc3c(N)ncnc3c2OCCN(C)C)c2c1C(=O)CC(C)(C)C2 [Compound 52, 1-(4-amino-8-(2-(dimethylamino)ethoxy)quinazolin-7-yl)-3,6,6-trimethyl-6,7-dihydro-1H-indol-4(5H)-one]
Second: Cc1cn(-c2ccc3c(N)ncnc3c2F)c2c1C(=O)CC(C)(C)C2 [Compound 43, 1-(4-amino-8-fluoroquinazolin-7-yl)-3,6,6-trimethyl-6,7-dihydro-1H-indol-4(5H)-one]
The IC50 of the first is higher: 5 to 50 µM for the first, 0.5 to 5 µM for the second.

First: C/C(=N\O)c1cnc(N)c2ccc(-n3cc(C)c4c3CC(C)(C)CC4=O)cc12 [Compound 102, (E)-1-(1-amino-4-(1-(hydroxyimino)ethyl)isoquinolin-6-yl)-3,6,6-trimethyl-6,7-dihydro-1H-indol-4(5H)-one]
Second: CC(=O)c1cnc(N)c2ccc(-n3cc(C)c4c3CC(C)(C)CC4=O)cc12 [Compound 107, 1-(4-acetyl-1-aminoisoquinolin-6-yl)-3,6,6-trimethyl-6,7-dihydro-1H-indol-4(5H)-one]
The IC50 of the first is higher: 5 to 50 µM for the first, 0.5 to 5 µM for the second.

`CCCCSc1c(-n2cc(C)c3c2CC(C)(C)CC3=O)ccc2c(N)ncnc12` [Compound 54, 1-(4-amino-8-(butylthio)quinazolin-7-yl)-3,6,6-trimethyl-6,7-dihydro-1H-indol-4(5H)-one] and `Cc1cn(-c2ccc3c(N)ncnc3c2SCCNC(C)(C)C)c2c1C(=O)CC(C)(C)C2` [Compound 110, 1-(4-amino-8-(2-(tert-butylamino)ethylthio)quinazolin-7-yl)-3,6,6-trimethyl-6,7-dihydro-1H-indol-4(5H)-one] fall in the same range of IC50: 0.5 to 5 µM for the first, 0.5 to 5 µM for the second.

First: Cc1cn(-c2ccc3c(N)ncnc3c2SCCNCC(C)(C)C)c2c1C(=O)CC(C)(C)C2 [Compound 81, 1-(4-amino-8-(2-(neopentylamino)ethylthio)quinazolin-7-yl)-3,6,6-trimethyl-6,7-dihydro-1H-indol-4(5H)-one]
Second: CCCCSc1cc(-n2cc(C)c3c2CC(C)(C)CC3=O)cc2ncnc(N)c12 [Compound 73, 1-(4-amino-5-(butylthio)quinazolin-7-yl)-3,6,6-trimethyl-6,7-dihydro-1H-indol-4(5H)-one]
The IC50 of the first is lower: < 0.5 µM for the first, 5 to 50 µM for the second. The first is the more potent here.

First: Cc1cc2c(n1-c1cnc3c(N)ncnc3c1)CC(C)(C)CC2=O [Compound 38, 1-(4-aminopyrido[3,2-d]pyrimidin-7-yl)-2,6,6-trimethyl-6,7-dihydro-1H-indol-4(5H)-one]
Second: Cc1cn(-c2cnc3c(N)ncnc3c2)c2c1C(=O)CC(C)(C)C2 [Compound 66, 1-(4-aminopyrido[3,2-d]pyrimidin-7-yl)-3,6,6-trimethyl-6,7-dihydro-1H-indol-4(5H)-one]
The IC50 of the first is higher: 5 to 50 µM for the first, 0.5 to 5 µM for the second. The second is the more potent here.

`Cc1cn(-c2ccc3c(O)ncnc3c2)c2c1C(=O)CC(C)(C)C2` [Compound 90, 1-(4-hydroxyquinazolin-7-yl)-3,6,6-trimethyl-6,7-dihydro-1H-indol-4(5H)-one] and `Cc1c2c(n(-c3ccc4c(N)ncnc4c3)c1C)CC(C)(C)CC2=O` [Compound 92, 1-(4-aminoquinazolin-7-yl)-2,3,6,6-tetramethyl-6,7-dihydro-1H-indol-4(5H)-one] cannot be ordered by IC50: < 0.5 µM for the first, < 0.5 µM for the second.

First: Cc1cn(-c2ccc3c(N)ncnc3c2F)c2c1C(=O)CC(C)C2 (stereo not drawn) [Compound 65, 1-(4-amino-8-fluoroquinazolin-7-yl)-3,6-dimethyl-6,7-dihydro-1H-indol-4(5H)-one]
Second: CC1(C)CC(=O)c2c(C(F)(F)F)nn(-c3ccc4c(N)ncnc4c3)c2C1 [Compound 51, 1-(4-aminoquinazolin-7-yl)-6,6-dimethyl-3-(trifluoromethyl)-6,7-dihydro-1H-indazol-4(5H)-one]
The IC50 of the first is lower: 0.5 to 5 µM for the first, 5 to 50 µM for the second.

Compared with `COc1cc(COc2cc(-n3cc(C)c4c3CC(C)(C)CC4=O)cc3ncnc(N)c23)cc(OC)c1` [Compound 78, 1-(4-amino-5-(3,5-dimethoxybenzyloxy)quinazolin-7-yl)-3,6,6-trimethyl-6,7-dihydro-1H-indol-4(5H)-one], `CC1(C)CC(=O)c2c(CC3CC3)nn(-c3ccc4c(N)ncnc4c3)c2C1` [Compound 83, 1-(4-aminoquinazolin-7-yl)-3-(cyclopropylmethyl)-6,6-dimethyl-6,7-dihydro-1H-indazol-4(5H)-one] is higher in IC50: 0.5 to 5 µM for the first, 5 to 50 µM for the second.
